Patent publication US4385055A, “2-Acetyl-and 2-propionylpyridine thiosemicarbazones as antimalarials” (The United States of America as represented by the …, priority 1981, dated 1983)
≈ marks a conversion by molar mass, not a printed value. Like-named read-outs stand apart in the source and are kept apart here. Blank lines part the entries; values can stand above or below the compound they belong to.

Experiments:
Assay type in all cases: cell-based
[1] = system: Mycobacterium smegmatis; test: MIC against Mycobacterium smegmatis strains (Test 4); details: Mycolicibacterium smegmatis, read-out: Minimum Inhibitory Concentration
Procedure: Compounds were tested against four strains of Mycobacterium smegmatis. The test procedure used was as mentioned by N. E. Morrison [Int. J. of Leprosy 39:34-43 (1971)]. The strain numbers refer to Mycobacterium smegmatis ATCC 607, a DDS-resistant daughter strain, a Rifampin-resistant daughter strain, and a Clofazimine-resistant daughter strain, respectively.

[2] = system: Neisseria gonorrhoeae; test: Agar dilution MIC, Neisseria gonorrhoeae isolates (Test 3); details: 24 h, read-out: Minimum Inhibitory Concentration
Procedure: Compounds were tested against six Neisseria gonorrhoeae isolates. The bacteria used were provided by the Department of Bacterial Diseases of the Walter Reed Army Institute of Research. The test procedure used was the agar dilution method in duplicate as outlined by J. C. Sherris on pages 411-412 (loc. cit.). GC Medium (Difco) with a 2% defined supplement added as described by D. S. Kellogg et al. [J. Bact. 85:1274-1279 (1963)] was used as the media. The compounds were dissolved in DMSO (1.0 mg/mL), diluted with GC broth (GC Medium without agar) to the appropriate concentration, and added to the GC Medium at 55°-56° C. The latter was then poured and allowed to solidify. A penicillin standard was also prepared with initial dilutions as described by J. C. Sherris followed by dilutions with GC broth and addition to the GC Medium at 55°-56° C. as above. The inoculum was 1:200 GC broth dilution of a suspension of colony isolates after the suspension was adjusted visually to the turbidity standard described by J. M. Matsen and A. L. Barr on page 422 in "Manual of Clinical Microbiology," 2nd ed., E. Lennette, E. H. Spaulding, and J. P. Truant, Ed. (American Society for Microbiology, Washington, D.C., 1974). The plates were inoculated with a replicator and incubated at 37° C. under 5-10% carbon dioxide.

[3] = system: Mycobacterium intracellulare; test: Broth dilution MIC, Mycobacterium intracellulare strains (Test 6); details: read-out: Minimum Inhibitory Concentration
[4] = system: Group D Enterococcus; test: Macro broth dilution MIC, Group D Enterococcus isolates (Test 1); details: 24 h, read after 24 hours, read-out: Minimum Inhibitory Concentration
Procedure: (§1) Compounds were tested against five isolates of Staphylococcus aureus and five isolates of Group D Enterococcus. The bacteria used were isolated from patients at the Walter Reed Army Medical Center, Washington, D.C. The test procedure used was the macro broth dilution method in duplicate as outlined by J. C. Sherris on pages 414-415 in "Manual of Clinical Microbiology," 2nd ed., E. Lennette, E. H. Spaulding, and J. P. Truant, Ed. (American Society for Microbiology, Washington, D.C., 1974). Each compound was dissolved in DMSO (12.8 mg/mL) and then diluted with Mueller-Hinton broth to obtain the desired dilutions. Tubes containing the highest quantities of DMSO with no compound present were run as controls.

[5] = system: Neisseria meningitidis; test: Macro broth dilution MIC, Neisseria meningitidis isolates (Test 2); details: Neisseria meningitidis, 24 h, read after 24 hours, read-out: Minimum Inhibitory Concentration
Procedure: Compounds were tested against five isolates of Neisseria meningitidis. The bacterial isolates were provided by the Department of Bacterial Diseases of the Walter Reed Army Institute of Research. The test procedure used was the macro broth dilution method in duplicate outlined by J. C. Sherris on pages 414-415 (loc. cit.). The test compounds and controls were prepared as in Test 1 above. Ampicillin and penicillin standards were initially diluted as described by J. C. Sherris on pages 411-412 (loc. cit.) followed by dilution with Mueller-Hinton broth. The tubes were incubated at 37° C. under 5-10% carbon dioxide.

[6] = system: Staphylococcus aureus; test: Macro broth dilution MIC, Staphylococcus aureus isolates (Test 1); details: 24 h, read after 24 hours, read-out: Minimum Inhibitory Concentration
Procedure: as §1

[7] = ATCC607, Mycobacterium smegmatis strain I (ATCC 607)
[8] = Mycobacterium smegmatis strain II (DDS-resistant daughter strain)
[9] = Mycobacterium smegmatis strain III (Rifampin-resistant daughter strain)
[10] = Mycobacterium smegmatis strain IV (Clofazimine-resistant daughter strain)
[11] = Neisseria gonorrhoeae isolate 135, read after 24 hours
[12] = Neisseria gonorrhoeae isolate 161, read after 24 hours
[13] = Neisseria gonorrhoeae isolate 278, read after 24 hours
[14] = Neisseria gonorrhoeae isolate 455, read after 24 hours
[15] = Neisseria gonorrhoeae isolate 456, read after 24 hours
[16] = Neisseria gonorrhoeae isolate 602, read after 24 hours
[17] = Neisseria meningitidis isolate 7957
[18] = Neisseria meningitidis isolate 7990
[19] = Neisseria meningitidis isolate 8005
[20] = Neisseria meningitidis isolate 8006
[21] = Neisseria meningitidis isolate 8011

SMILES: C=CCNC(=S)NN=C(C)c1ccccn1 [A, 2-Acetylpyridine 4-allyl-3-thiosemicarbazone]
MIC [1, 7]: < 1 µg/mL
MIC [1, 8]: < 1 µg/mL
MIC [1, 9]: < 1 µg/mL
MIC [1, 10]: < 1 µg/mL

SMILES: CC(C)/N=c1\cc2n(-c3ccc(Cl)cc3)c3ccccc3nc-2cc1Nc1ccc(Cl)cc1 [Clofazimine, reference compound]
MIC [1, 7]: 1.5 µg/mL (≈ 3.17 µM)
MIC [1, 10]: 20 µg/mL (≈ 42.2 µM)

SMILES: CC(=NNC(=S)N1CCCC1)c1ccccn1 [HH, 1-Azacyclopentane-1-thiocarboxylic acid 2-[1-(2-pyridyl)ethylidene]hydrazide]
MIC [1, 7]: 2 µg/mL (≈ 8.05 µM)
MIC [1, 8]: 3 µg/mL (≈ 12.1 µM)
MIC [1, 9]: 2 µg/mL (≈ 8.05 µM)
MIC [1, 10]: 4 µg/mL (≈ 16.1 µM)
MIC [2, 11]: 0.008 µg/mL (≈ 0.0322 µM)
MIC [2, 12]: 0.004 µg/mL (≈ 0.0161 µM)
MIC [2, 13]: 0.008 µg/mL (≈ 0.0322 µM)
MIC [2, 14]: 0.008 µg/mL (≈ 0.0322 µM)
MIC [2, 15]: 0.008 µg/mL (≈ 0.0322 µM)
MIC [2, 16]: 0.008 µg/mL (≈ 0.0322 µM)

SMILES: Nc1ccc(S(=O)(=O)c2ccc(N)cc2)cc1 [DDS, reference compound]
MIC [1, 7]: 2 µg/mL (≈ 8.05 µM)
MIC [1, 8]: 400 µg/mL (≈ 1610 µM)

MIC ([3]; Mycobacterium intracellulare strain I): 10 µg/mL (≈ 27.7 µM)
MIC ([3]; Mycobacterium intracellulare strain II): 1 µg/mL (≈ 2.77 µM)
MIC ([3]; Mycobacterium intracellulare strain III): 1 µg/mL (≈ 2.77 µM)
MIC ([3]; Mycobacterium intracellulare strain IV): 10 µg/mL (≈ 27.7 µM)
MIC ([3]; Mycobacterium intracellulare strain V): 10 µg/mL (≈ 27.7 µM)
MIC ([3]; Mycobacterium intracellulare strain VI): 10 µg/mL (≈ 27.7 µM)
SMILES: CC(=NNC(=S)N1CCCCCCCCCCCC1)c1ccccn1 [Z, 1-Azacyclotridecane-1-thiocarboxylic acid 2-[1-(2-pyridyl)ethylidene]hydrazide]

MIC ([4]; Group D Enterococcus isolate I): 8 µg/mL (≈ 26.1 µM)
MIC ([4]; Group D Enterococcus isolate II): 4 µg/mL (≈ 13.1 µM)
MIC ([4]; Group D Enterococcus isolate III): 4 µg/mL (≈ 13.1 µM)
MIC ([4]; Group D Enterococcus isolate IV): 4 µg/mL (≈ 13.1 µM)
MIC ([4]; Group D Enterococcus isolate V): 4 µg/mL (≈ 13.1 µM)
SMILES: CC(=NNC(=S)NC(C)(C)CC(C)(C)C)c1ccccn1 [G, 2-Acetylpyridine 4-(1,1,3,3-tetramethylbutyl)-3-thiosemicarbazone]

MIC [5, 17]: 0.008 µg/mL (≈ 0.0229 µM)
MIC [5, 18]: 0.008 µg/mL (≈ 0.0229 µM)
MIC [5, 19]: 0.008 µg/mL (≈ 0.0229 µM)
MIC [5, 20]: 0.016 µg/mL (≈ 0.0458 µM)
MIC [5, 21]: 0.016 µg/mL (≈ 0.0458 µM)
SMILES: CC1(C)S[C@@H]2[C@H](NC(=O)[C@H](N)c3ccccc3)C(=O)N2[C@H]1C(=O)O [Ampicillin, reference compound]

MIC ([6]; Staphylococcus aureus isolate I): 2 µg/mL (≈ 6.7 µM)
MIC ([6]; Staphylococcus aureus isolate II): 2 µg/mL (≈ 6.7 µM)
MIC ([6]; Staphylococcus aureus isolate III): 2 µg/mL (≈ 6.7 µM)
MIC ([6]; Staphylococcus aureus isolate IV): 2 µg/mL (≈ 6.7 µM)
MIC ([6]; Staphylococcus aureus isolate V): 1 µg/mL (≈ 3.35 µM)
SMILES: CC(=NNC(=S)NCc1ccccc1C)c1ccccn1 [N, 2-Acetylpyridine 4-(2-methylbenzyl)-3-thiosemicarbazone]

SMILES: CC(=NNC(=S)N(C)C)c1ccccn1 [R, 2-Acetylpyridine 4,4-dimethyl-3-thiosemicarbazone]
MIC [5, 17]: 0.062 µg/mL (≈ 0.279 µM)
MIC [5, 18]: 0.125 µg/mL (≈ 0.562 µM)
MIC [5, 19]: 0.062 µg/mL (≈ 0.279 µM)
MIC [5, 20]: 0.062 µg/mL (≈ 0.279 µM)
MIC [5, 21]: 0.125 µg/mL (≈ 0.562 µM)
MIC [1, 7]: 2 µg/mL (≈ 9 µM)
MIC [1, 8]: 3 µg/mL (≈ 13.5 µM)
MIC [1, 9]: 2 µg/mL (≈ 9 µM)
MIC [1, 10]: 2 µg/mL (≈ 9 µM)
MIC [2, 11]: 0.004 µg/mL (≈ 0.018 µM)
MIC [2, 12]: 0.004 µg/mL (≈ 0.018 µM)
MIC [2, 13]: 0.008 µg/mL (≈ 0.036 µM)
MIC [2, 14]: 0.008 µg/mL (≈ 0.036 µM)
MIC [2, 15]: 0.008 µg/mL (≈ 0.036 µM)
MIC [2, 16]: 0.008 µg/mL (≈ 0.036 µM)
